# Data from patent publication US4339439A, “Pharmaceutical methods and compositions” (Bristol-Myers Company, priority 1981, dated 1982).
# “Also recorded” adds a separate entry of the source. Read-outs that look alike come from different tables or passages of the source. Non-standard residues stand in square brackets, D forms with d. Residues, ends and D or L forms follow the SMILES beside them. *: point of attachment. Sta = CC(C)C[C@H](N)[C@@H](O)CC(=O)O; Isovaleryl = CC(C)CC(=O)*
# Legend:
# [1] = tested on: stress ulceration; conditions: two or more days of pretreatment; Strauss et al. 1977; cited from earlier work
# [2] = tested on: gastric acid secretion; conditions: cited from earlier work
# [3] = molecular target: histamine H2 -receptor (Homo sapiens, UniProt P25021); conditions: Cavanagh et al. 1980; cited from earlier work
# [4] = Toxicity profile in pharmacological studies in animals; format: in vivo
# [5] = tested on: meal stimulated gastric acid secretion; conditions: patients with inactive duodenal ulcers; Myers and Peterson 1980; cited from earlier work
# [6] = tested on: gastric acid secretion; assay: Inhibitory effect on gastric acid secretion versus pepsin activity; conditions: in vivo
# [7] = tested on: gastric erosions produced in rats by the oral instillation of 1.0 ml of 0.75 N HCl; assay: HCl-induced gastric erosions in rats (modified method of Robert et al.); format: in vivo, rat (Long Evans)
# Procedure: In the tests described below, gastric erosions produced in rats by the oral instillation of 1.0 ml of 0.75 N HCl were compared with those in rats which had been pretreated with etintidine or with etintidine and pepstatin.
# A modification of the method of Robert et al., [Gastroenterology, 77, 433-443 (1979)] was employed to produce gastric erosions. Adult male, Long Evans rats weighing 280-300 g (Blue Spruce Farms, Alton, New York) were used. The animals were individually caged and food and water were removed 24 and 18 hours, respectively, prior to testing. On the following day, etintidine was administered orally to the animals 30 minutes before 1.0 ml of 0.75 N HCl was instilled into the stomach by gavage. […]
# The stomachs were removed from the animals, cut along the greater curvature, opened, rinsed with saline and pinned out flat in a standard position for macroscopic examination and scoring of erosions. The stomachs were photographed with a Polaroid® Close Up camera (Polaroid Corporation) and scoring was determined from the photographs. […]
# Data were analyzed using the t-test for unpaired data and ED50 values were calculated from dose response data using probit analysis [Finney, Probit Analysis, 3rd ed., University Press, Cambridge, England (1971)]. […]
# [8] = tested on: stomach ulcers in the pylorus ligated (Shay) rat; assay: Ulcer formation in the pylorus ligated (Shay) rat; format: in vivo; conditions: 18 hour pylorus ligated rat, 20 mg/kg po, previous studies in applicant's laboratories
# [9] = tested on: duodenal ulcer; conditions: cited from earlier work
# [10] = tested on: stomach ulcers in the pylorus ligated (Shay) rat; conditions: Umezawa et al. 1970; cited from earlier work
# [11] = tested on: pepsin; assay: Pepsin activity in the 18 hour pylorus ligated rat; format: in vivo; conditions: 20 mg/kg po
# [12] = tested on: pepsin; conditions: cited from earlier work
# [13] = daily oral doses of 700 mg for up to three months; Svendsen et al. 1976; cited from earlier work
# [14] = all animal species studied; Svendsen et al. 1976; cited from earlier work
# [15] = tested on: gastric ulcer; conditions: cited from earlier work
# [16] = tested on: pepsin; conditions: in the stomach; U.S. Pat. No. 4,101,650; cited from earlier work
# [17] = Absorption and fecal excretion after oral administration; format: in vivo, animals
# [18] = British Medical Journal review 1980
# [19] = patients with ulcer dyspepsia, Svendsen et al. 1976
# Chain of histamine H2 -receptor (P25021 whole entry, species assumed): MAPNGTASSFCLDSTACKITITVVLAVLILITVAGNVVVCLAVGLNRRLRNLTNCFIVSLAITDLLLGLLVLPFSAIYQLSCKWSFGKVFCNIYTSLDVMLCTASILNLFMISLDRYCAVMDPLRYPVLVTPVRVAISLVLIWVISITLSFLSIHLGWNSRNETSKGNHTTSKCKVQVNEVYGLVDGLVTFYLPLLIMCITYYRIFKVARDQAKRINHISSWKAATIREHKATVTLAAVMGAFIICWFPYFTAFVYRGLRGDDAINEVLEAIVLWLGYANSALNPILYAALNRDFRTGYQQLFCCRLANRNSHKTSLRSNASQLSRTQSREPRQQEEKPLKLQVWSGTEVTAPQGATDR
compound,measurement,setting,value
CC1(C)[C@@H](OC(=O)CCC(=O)O)CC[C@]2(C)[C@H]3C(=O)C=C4[C@@H]5C[C@@](C)(C(=O)O)CC[C@]5(C)CC[C@@]4(C)[C@]3(C)CC[C@@H]12 [carbenoxolone],ulcer formation,[1],significantly decreased ulcer formation
CN/C(=N/CCSCc1nc[nH]c1C)NC#N [cimetidine],effect on pepsin secretion,[2]; Binder and Donaldson 1978,less marked
same,basal and stimulated gastric acid secretion,"[2]; normal volunteers, Burland et al. 1975",antagonize both basal and stimulated gastric acid secretion
same,basal and stimulated gastric acid secretion,"[2]; patients with duodenal ulcer, Longstreth et al. 1976",antagonize both basal and stimulated gastric acid secretion
same,ulcer formation,[1],significantly decreased ulcer formation
C#CCN/C(=N\C#N)NCCSCc1nc[nH]c1C [etintidine],potency relative to cimetidine,[3],about twice as potent as cimetidine
same,toxicity,[4],relatively nontoxic
same,toxicity profile compared with cimetidine,[4],substantially the same as that of the commercial H2 -antagonist cimetidine
same,meal stimulated gastric acid secretion,[5],effectively antagonizes meal stimulated gastric acid secretion
same,inhibitory effect on gastric acid secretion compared with pepsin activity,[6],significantly greater than on pepsin activity
same,ED50 for inhibition of gastric erosions,"[7]; etintidine po 30 min before 1.0 ml 0.75 N HCl, combination also received pepstatin 20 mg/kg po 10 min before HCl, FIG. 2",62 mg/kg
same,formation of gastric erosions,"[7]; pretreatment with 17.5, 35, 70 or 140 mg/kg etintidine po",decreased the formation of gastric erosions in a dose-related manner
CC(C)CC(=O)N[C@H](C(=O)N[C@H](C(=O)N[C@@H](CC(C)C)[C@@H](O)CC(=O)N[C@@H](C)C(=O)N[C@@H](CC(C)C)[C@@H](O)CC(=O)O)C(C)C)C(C)C [pepstatin] (Isovaleryl-VV[Sta]A[Sta]-OH),ulcer formation,[8],antagonized ulcer formation
same,healing or symptomatology of duodenal ulcer versus placebo,"[9]; 100 mg seven times a day, double-blind randomized trial, Bonnevie et al. 1979",no significant difference between pepstatin and placebo
same,benefit / healing in patients with duodenal ulcer,[9]; [18],ineffective
same,preventing recurrent bleeding in patients admitted with haematemesis and melaena,[9]; [18],ineffective
same,formation of stomach ulcers,[10],prevent the formation of stomach ulcers
same,pepsin activity,[11],completely inhibited pepsin activity
same,gastric acidity,[12]; [19],no effect on the gastric acidity
same,gastric peptic activity,[12]; [19],inhibits gastric peptic activity
same,duration of inhibition of peptic activity of gastric juice,"[12]; ulcer patients, 100 mg doses seven times a day",18 hours a day
same,side effects,[13],no side effects were observed
same,LD50,[14],exceeded 3000 mg/kg
same,healing or symptomatology of gastric ulcer versus placebo,"[15]; 100 mg seven times a day, double-blind randomized trial, Svendsen et al. 1979",not able to detect any influence of pepstatin
same,duration of pepsin suppression,[16],about 1 hours
same,absorption upon oral administration,[17],essentially unabsorbed; also recorded: only poorly absorbed
same,fraction of compound excreted in the feces,"[17]; animal studies, within 72 hours",more than 90%
Amylopectin,benefit / healing in patients with duodenal ulcer,[9]; [18],no significant benefit
sucralfate,benefit in patients with gastric ulcer,[15]; [18],none
